Laboratory results published in patent US20180099931A1 (AbbVie S.à.r.l., priority 2016, published 2018).
Where two headings read alike, the source gives them in different places.

Target: T1, F508delCFTR (Homo sapiens, UniProt P13569, DEL508-508)
T1 construct: expressed in transfected cells; host or cells: CFBE41o- human lung-derived epithelial cells (CFBE4lo-F508delCFTR-HRP), doxycycline-inducible
Test: Cell Surface Expression-Horse Radish Peroxidase (CSE-HRP) Assay;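 for Maximum % activity (with co-corrector): co-corrector and positive control are both the same reference corrector at 2 µM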;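 for Maximum % activity (without co-corrector): percent of the 2 µM on-plate positive control corrector response above DMSO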
Format: cell-based
Details: for Emax: read-out: Maximum % activity (without co-corrector)

[1] = CSE-HRP, test compound without co-corrector, read-out: EC50 (without co-corrector)
[2] = CSE-HRP, with co-corrector (2 μM of 3-[(2R,4R)-4-({[1-(2,2-difluoro-1,3-benzodioxol-5-yl)cyclopropyl]carbonyl}amino)-7-methoxy-3,4-dihydro-2H-chromen-2-yl]benzoic acid), read-out: EC50 (with co-corrector)
[3] = CSE-HRP, with co-corrector (2 μM), maximum at any tested concentration, normalized to on-plate positive control
[4] = CSE-HRP, without co-corrector, maximum at any tested concentration, normalized to on-plate positive control
[5] = test compound without co-corrector, read-out: EC50 (without co-corrector)
[6] = with co-corrector (2 μM of 3-[(2R,4R)-4-({[1-(2,2-difluoro-1,3-benzodioxol-5-yl)cyclopropyl]carbonyl}amino)-7-methoxy-3,4-dihydro-2H-chromen-2-yl]benzoic acid), read-out: EC50 (with co-corrector)
[7] = with co-corrector (2 μM), maximum at any tested concentration, normalized to on-plate positive control
[8] = without co-corrector, maximum at any tested concentration, normalized to on-plate positive control
[9] = test compound without co-corrector, maximum at any tested concentration, normalized to on-plate positive control
[10] = with co-corrector (2 μM of 3-[(2R,4R)-4-({[1-(2,2-difluoro-1,3-benzodioxol-5-yl)cyclopropyl]carbonyl}amino)-7-methoxy-3,4-dihydro-2H-chromen-2-yl]benzoic acid), maximum at any tested concentration, normalized to on-plate positive control

T1 sequence (P13569 with tags, fused parts or gaps DEL508-508): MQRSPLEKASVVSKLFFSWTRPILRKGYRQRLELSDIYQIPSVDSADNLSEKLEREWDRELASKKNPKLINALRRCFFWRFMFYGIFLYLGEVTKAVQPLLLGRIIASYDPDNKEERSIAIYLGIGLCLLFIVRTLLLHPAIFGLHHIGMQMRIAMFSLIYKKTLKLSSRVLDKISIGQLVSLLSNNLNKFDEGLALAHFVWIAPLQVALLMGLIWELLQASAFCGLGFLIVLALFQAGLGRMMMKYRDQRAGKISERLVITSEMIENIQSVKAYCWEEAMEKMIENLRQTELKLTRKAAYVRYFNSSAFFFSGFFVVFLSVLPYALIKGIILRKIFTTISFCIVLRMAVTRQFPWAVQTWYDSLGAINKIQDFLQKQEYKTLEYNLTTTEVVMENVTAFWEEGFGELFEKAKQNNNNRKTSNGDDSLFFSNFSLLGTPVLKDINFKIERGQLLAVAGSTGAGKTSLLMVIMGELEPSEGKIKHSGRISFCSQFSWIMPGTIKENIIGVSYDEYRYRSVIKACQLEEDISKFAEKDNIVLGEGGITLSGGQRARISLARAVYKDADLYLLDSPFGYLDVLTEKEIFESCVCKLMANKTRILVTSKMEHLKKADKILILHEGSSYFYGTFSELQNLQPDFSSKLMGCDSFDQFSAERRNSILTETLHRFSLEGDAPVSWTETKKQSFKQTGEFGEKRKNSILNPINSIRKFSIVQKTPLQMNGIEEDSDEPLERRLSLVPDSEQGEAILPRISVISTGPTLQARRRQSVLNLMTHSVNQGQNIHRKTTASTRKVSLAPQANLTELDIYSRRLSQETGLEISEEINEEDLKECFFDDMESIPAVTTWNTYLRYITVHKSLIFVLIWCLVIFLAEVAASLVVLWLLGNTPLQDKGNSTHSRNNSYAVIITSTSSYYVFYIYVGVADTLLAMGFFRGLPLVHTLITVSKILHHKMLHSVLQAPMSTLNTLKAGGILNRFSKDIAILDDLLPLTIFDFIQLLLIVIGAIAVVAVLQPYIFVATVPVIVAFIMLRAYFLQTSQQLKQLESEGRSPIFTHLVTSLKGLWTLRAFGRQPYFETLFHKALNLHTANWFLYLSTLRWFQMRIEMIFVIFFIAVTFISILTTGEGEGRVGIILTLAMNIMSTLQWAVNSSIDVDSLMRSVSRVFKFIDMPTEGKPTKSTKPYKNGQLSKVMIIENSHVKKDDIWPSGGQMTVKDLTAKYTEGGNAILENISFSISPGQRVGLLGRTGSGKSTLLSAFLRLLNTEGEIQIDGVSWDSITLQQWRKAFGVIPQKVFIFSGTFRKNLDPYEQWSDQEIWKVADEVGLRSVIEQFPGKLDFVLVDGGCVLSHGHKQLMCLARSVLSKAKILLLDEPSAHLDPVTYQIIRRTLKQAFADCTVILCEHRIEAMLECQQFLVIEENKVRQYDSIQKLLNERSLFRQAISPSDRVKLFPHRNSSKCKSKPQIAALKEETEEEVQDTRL

SMILES | EC50 [1] [µM] | EC50 [2] [µM] | Maximum % activity (with co-corrector) [3] | Emax [4] [%] | EC50 [5] [µM] | EC50 [6] [µM] | Emax [9] [%] | Maximum % activity (with co-corrector) [10] | also measured
COc1ccc(C(C)(C)C)cc1CN[C@H]1[C@H](C(C)(C)C)[C@@H](C(=O)O)N(C(=O)C2CCC(C#N)CC2)[C@H]1c1ccccc1 (stereo partly shown) [II-175] | 1 to 10 | 1 to 10 | +++ (≥350) | 100 to 200 | – | – | – | – | –
COc1ccc(C(C)(C)C)cc1CN[C@H]1[C@H](C(C)(C)C)[C@@H](C(=O)O)N(C(=O)[C@@H]2[C@@H](C(F)(F)F)[C@@H]3CC[C@H]2O3)[C@H]1c1cccnc1N(C)C (relative stereo) [Example I-204] | – | – | – | – | < 1 | < 1 | – | – | Maximum % activity (with co-corrector) [7]: +++ (≥350); Emax [8]: > 200%
COc1ncc(C(F)(F)F)cc1CN[C@H]1[C@H](C(C)(C)C)[C@@H](C(=O)O)N(C(=O)[C@@H]2CCCCO2)[C@H]1c1cccc2c1OCC2 [Example I-298] | 1 to 10 | 1 to 10 | +++ (≥350) | 100 to 200 | – | – | – | – | –
COc1ccc(-c2cccnc2OC)cc1CN[C@H]1[C@H](C(C)(C)C)[C@@H](C(=O)O)N(C(=O)C2CCCCC2)[C@H]1c1ccccc1 [II-250] | 1 to 10 | 1 to 10 | +++ (≥350) | 100 to 200 | – | – | – | – | –
CC[C@H](C(=O)N1[C@H](C(=O)O)[C@@H](C(C)(C)C)[C@H](NCc2cc(C(C)(C)C)ccc2OC)[C@@H]1c1cccnc1OC)c1ccccc1 [Example I-253] | 1 to 10 | 1 to 10 | +++ (≥350) | 100 to 200 | – | – | – | – | –
CC(C)(C)[C@H]1[C@H](Nc2ccc(C3(C#N)CC3)cn2)[C@H](c2ccccc2)N(C(=O)C2CCCCC2)[C@@H]1C(=O)O [III-159] | – | – | – | – | > 10 | 1 to 10 | < 100 | – | Maximum % activity (with co-corrector) [7]: ++ (≥150 and <350)
COc1c(C#N)c(N[C@H]2[C@H](C(C)(C)C)[C@@H](C(=O)O)N(C(=O)C3CCCCC3)[C@H]2c2ccccc2)nc2ccccc12 [Example I-55] | – | – | – | – | 1 to 10 | 1 to 10 | – | – | Maximum % activity (with co-corrector) [7]: +++ (≥350); Emax [8]: < 100%
COc1ccc(SC(F)(F)F)cc1CN[C@H]1[C@H](C(C)(C)C)[C@@H](C(=O)O)N(C(=O)C2CCCCC2)[C@H]1c1cccnc1OC [II-527] | – | – | – | – | 1 to 10 | 1 to 10 | 100 to 200 | +++ (≥350) | –
COc1cccc([C@@H]2[C@H](Nc3cc(C(F)(F)F)cc(C)n3)[C@@H](C(C)(C)C)[C@H](C(=O)O)N2C(=O)C2C3COCC32)n1 (mixture of isomers) [III-62] | – | – | – | – | 1 to 10 | 1 to 10 | < 100 | ++ (≥150 and <350) | –
COc1ccc(C(F)(F)F)cc1CN[C@H]1[C@H](C(C)(C)C)[C@@H](C(=O)O)N(C(=O)C2Cc3ccccc3O2)[C@H]1c1ccccc1 (single isomer, unassigned) [II-266] | 1 to 10 | < 1 | – | – | – | – | – | – | Maximum % activity (with co-corrector) (CSE-HRP, with co-corrector (2 μM), maximum at any tested concentration, normalized to on-plate positive control, 2 µM): +++ (≥350); Maximum % activity (without co-corrector) [4]: ++ (≥100 and <200)
COc1ccc(CN[C@@H]2[C@@H](C(C)(C)C)[C@H](C(=O)O)N(C(=O)C3CCCCC3)[C@@H]2c2ccccc2)cn1 (racemic) [III-25] | – | – | – | – | > 10 | 1 to 10 | < 100 | ++ (≥150 and <350) | –
COc1ccc(C(C)(C)C)cc1CN[C@H]1[C@H](C(C)(C)C)[C@@H](C(=O)O)N(C(=O)C2CC2c2ccc(F)cc2)[C@H]1c1ccccc1 (stereo partly shown) [II-307] | < 1 | < 1 | +++ (≥350) | > 200 | – | – | – | – | –
COc1ncc(C2(C)CC2)cc1CN[C@H]1[C@H](C(C)(C)C)[C@@H](C(=O)O)N(C(=O)C2CCCCC2)[C@H]1c1ccccc1 [II-440] | – | – | – | – | 1 to 10 | 1 to 10 | 100 to 200 | +++ (≥350) | –
COc1ncc(C(F)(F)F)cc1N[C@H]1[C@H](C(C)(C)C)[C@@H](C(=O)O)N(C(=O)C2CCCCC2)[C@H]1c1cccnc1N(C)C [II-461] | – | – | – | – | 1 to 10 | 1 to 10 | < 100 | ++ (≥150 and <350) | –
CC(C)OC(=O)N1[C@H](c2ccccc2)[C@H](Nc2cc(C(F)(F)F)ccn2)[C@@H](C(C)(C)C)[C@@H]1C(=O)O (racemic) [III-38] | – | – | – | – | 1 to 10 | 1 to 10 | < 100 | +++ (≥350) | –
COc1ccc(C(C)(C)C)cc1CN[C@H]1[C@H](C(C)(C)C)[C@@H](C(=O)O)N(C(=O)C2CCc3ccccc3O2)[C@H]1c1cccnc1N(C)C (single isomer, unassigned) [Example 43, (2S,3S,4S,5S)-3-tert-butyl-4-{[(5-tert-butyl-2-methoxyphenyl)methyl]amino}-1-[(2S*)-3,4-dihydro-2H-1-benzopyran-2-carbonyl]-5-[2-(dimethylamino)pyridin-3-yl]pyrrolidine-2-carboxylic acid] | – | – | – | – | 1 to 10 | < 1 | – | – | Maximum % activity (with co-corrector) [7]: +++ (≥350); Emax [8]: 100 to 200%
COc1ccc(C(C)(C)C)cc1CN[C@H]1[C@H](C(C)(C)C)[C@@H](C(=O)O)N(C(=O)[C@@H]2[C@@H](C(F)(F)F)[C@@H]3CC[C@H]2O3)[C@H]1c1ccccc1 (relative stereo) [II-505] | – | – | – | – | 1 to 10 | < 1 | > 200 | +++ (≥350) | –
COc1cc(C(F)(F)F)ccc1CN[C@H]1[C@H](C(C)(C)C)[C@@H](C(=O)O)N(C(=O)[C@@H]2CCCCO2)[C@H]1c1cccc2c1OCC2 [Example I-300] | 1 to 10 | 1 to 10 | +++ (≥350) | > 200 | – | – | – | – | –
COc1ncc(C(F)(F)F)cc1CN[C@H]1[C@H](C(C)(C)C)[C@@H](C(=O)O)N(C(=O)C2CC2)[C@H]1c1ccccc1C(C)C [Example I-271] | 1 to 10 | 1 to 10 | +++ (≥350) | > 200 | – | – | – | – | –
CC(C)Oc1ccccc1CN[C@@H]1[C@@H](C(C)(C)C)[C@H](C(=O)O)N(C(=O)C2CCCCC2)[C@@H]1c1ccccc1 (racemic) [II-4] | 1 to 10 | 1 to 10 | +++ (≥350) | 100 to 200 | – | – | – | – | –
COc1ccc(S(F)(F)(F)(F)F)cc1CN[C@H]1[C@H](C(C)(C)C)[C@@H](C(=O)O)N(C(=O)OC(C)C)[C@H]1c1ccccc1 [II-535] | – | – | – | – | 1 to 10 | 1 to 10 | > 200 | +++ (≥350) | –
COc1ccc(Cl)cc1CN[C@@H]1[C@@H](C(C)(C)C)[C@H](C(=O)O)N(C(=O)OC(C)C)[C@@H]1c1cccnc1N(C)C (racemic) [II-28] | 1 to 10 | 1 to 10 | +++ (≥350) | > 200 | – | – | – | – | –
COc1ccc(-c2ccc(C)cc2)cc1CN[C@H]1[C@H](C(C)(C)C)[C@@H](C(=O)O)N(C(=O)C2CCCCC2)[C@H]1c1ccccc1 [II-249] | < 1 | < 1 | +++ (≥350) | > 200 | – | – | – | – | –
COc1ncc(C(F)(F)F)cc1CN[C@H]1[C@H](C(C)(C)C)[C@@H](C(=O)O)N(C(=O)OC(C)C)[C@H]1c1cccnc1OC(C)C [Example 79, (2S,3S,4S,5S)-3-tert-butyl-4-({[2-methoxy-5-(trifluoromethyl)pyridin-3-yl]methyl}amino)-1-{[(propan-2-yl)oxy]carbonyl}-5-{2-[(propan-2-yl)oxy]pyridin-3-yl}pyrrolidine-2-carboxylic acid] | – | – | – | – | 1 to 10 | 1 to 10 | – | – | Maximum % activity (with co-corrector) [7]: +++ (≥350); Emax [8]: > 200%
Cc1cc(C(F)(F)F)cc(N[C@@H]2[C@@H](C(C)(C)C)[C@H](C(=O)O)N(C(=O)Cc3ccccc3)[C@@H]2c2ccccc2)n1 (racemic) [II-55] | > 10 | 1 to 10 | ++ (≥150 and <350) | < 100 | – | – | – | – | –
COc1cc(C(F)(F)F)ccc1CN[C@H]1[C@H](C(C)(C)C)[C@@H](C(=O)O)N(C(=O)C2CCCCC2)[C@H]1c1ccccc1F [II-261] | 1 to 10 | 1 to 10 | +++ (≥350) | < 100 | – | – | – | – | –
COc1ccc(C(C)(C)C)cc1CN[C@H]1[C@H](C(C)(C)C)[C@@H](C(=O)O)N(C(=O)Cc2ccc(F)c(F)c2)[C@H]1c1ccccc1 [III-172] | – | – | – | – | 1 to 10 | < 1 | 100 to 200 | – | Maximum % activity (with co-corrector) [7]: +++ (≥350)
COc1ncc(C2CCC2)cc1CN[C@H]1[C@H](C(C)(C)C)[C@@H](C(=O)O)N(C(=O)C2CCCC(F)(F)C2)[C@H]1c1ccccc1 (stereo partly shown) [II-492] | – | – | – | – | 1 to 10 | < 1 | > 200 | +++ (≥350) | –
